According to article PMC5218480 (PLoS ONE, 2017):

System: MV-4-11 cells
Experiment: Gene expression microarray analysis (Affymetrix PrimeView) and GSEA
Assay type: cell-based, human
Design: RFU PODN (11730768_x_at) / Fold change /veh PODN (11730768_x_at) / RFU LINC00158 (11744669_a_at) / Fold change /veh LINC00158 (11744669_a_at) / RFU DUSP10 (11751237_a_at) / Fold change /veh DUSP10 (11751237_a_at) / RFU ID3 (11757404_x_at) / Fold change /veh ID3 (11757404_x_at) / RFU PLEKHG5 (11737974_s_at) / Fold change /veh PLEKHG5 (11737974_s_at) / RFU LRRC4B (11730491_at) / Fold change /veh LRRC4B (11730491_at) / RFU GIMAP4 (11747438_a_at) / Fold change /veh GIMAP4 (11747438_a_at) / RFU KRT8 (11758183_x_at) / Fold change /veh KRT8 (11758183_x_at) / RFU CNN1 (11734310_a_at) / Fold change /veh CNN1 (11734310_a_at) / RFU VPS37D (11726825_at) / Fold change /veh VPS37D (11726825_at) / RFU C10orf10 (11716522_x_at) / Fold change /veh C10orf10 (11716522_x_at) / RFU KIR2DL2 /// KIR2DL4 /// KIR2DL5A /// KIR2DL5B /// KIR2DS1 /// KIR2DS2 /// KIR2DS3 /// KIR2DS4 /// KIR3DL3 /// KIR3DL3 /// KIR3DS1 (11738374_at) / Fold change /veh KIR2DL2 /// KIR2DL4 /// KIR2DL5A /// KIR2DL5B /// KIR2DS1 /// KIR2DS2 /// KIR2DS3 /// KIR2DS4 /// KIR3DL3 /// KIR3DL3 /// KIR3DS1 (11738374_at) / RFU C1QL1 (11718748_at) / Fold change /veh C1QL1 (11718748_at) / RFU TMPRSS4 (11747572_a_at) / Fold change /veh TMPRSS4 (11747572_a_at) / RFU HAMP (11756126_x_at) / Fold change /veh HAMP (11756126_x_at) / RFU RNFT2 (11725882_a_at) / Fold change /veh RNFT2 (11725882_a_at) / RFU NR4A2 (11747474_a_at) / Fold change /veh NR4A2 (11747474_a_at) / RFU ABCC12 (11746883_a_at) / Fold change /veh ABCC12 (11746883_a_at) / RFU TMEM136 (11760407_x_at) / Fold change /veh TMEM136 (11760407_x_at) / RFU CLDN22 /// WWC2 (11732394_at) / Fold change /veh CLDN22 /// WWC2 (11732394_at) / RFU HLA-DPB1 (11760878_x_at) / Fold change /veh HLA-DPB1 (11760878_x_at) / RFU SPINT1 (11716480_a_at) / Fold change /veh SPINT1 (11716480_a_at) / RFU GAP43 (11754022_s_at) / Fold change /veh GAP43 (11754022_s_at) / RFU A4GNT (11735810_at) / Fold change /veh A4GNT (11735810_at) / RFU PRB3 (11715151_x_at) / Fold change /veh PRB3 (11715151_x_at) / RFU TUBB4B (11761932_at) / Fold change /veh TUBB4B (11761932_at) / RFU CAPN14 (11732068_a_at) / Fold change /veh CAPN14 (11732068_a_at) / RFU TMCC2 (11721928_a_at) / Fold change /veh TMCC2 (11721928_a_at) / RFU IRGQ (11745062_a_at) / Fold change /veh IRGQ (11745062_a_at) / RFU FAM174B (11720279_a_at) / Fold change /veh FAM174B (11720279_a_at) / RFU TMPRSS4 (11748680_a_at) / Fold change /veh TMPRSS4 (11748680_a_at) / RFU FAM212B (11763350_a_at) / Fold change /veh FAM212B (11763350_a_at) / RFU PLEKHG5 (11743358_a_at) / Fold change /veh PLEKHG5 (11743358_a_at) / RFU ZSCAN30 (11745921_a_at) / Fold change /veh ZSCAN30 (11745921_a_at) / RFU CMKLR1 (11741424_a_at) / Fold change /veh CMKLR1 (11741424_a_at) / RFU LOC101060620 /// MAPK8IP1 (11723275_at) / Fold change /veh LOC101060620 /// MAPK8IP1 (11723275_at) / RFU SPTSSB (11747773_x_at) / Fold change /veh SPTSSB (11747773_x_at) / RFU PRSS12 (11739890_at) / Fold change /veh PRSS12 (11739890_at) / RFU BIN1 (11741810_x_at) / Fold change /veh BIN1 (11741810_x_at) / RFU WNT11 (11732464_a_at) / Fold change /veh WNT11 (11732464_a_at) / RFU C10orf10 (11716521_a_at) / Fold change /veh C10orf10 (11716521_a_at) / RFU C5orf56 (11738089_at) / Fold change /veh C5orf56 (11738089_at) / RFU CYB561 (11721691_x_at) / Fold change /veh CYB561 (11721691_x_at) / RFU ANKRD19P (11752326_a_at) / Fold change /veh ANKRD19P (11752326_a_at) / RFU OR2T12 /// OR2T33 /// OR2T8 (11738714_s_at) / Fold change /veh OR2T12 /// OR2T33 /// OR2T8 (11738714_s_at) / RFU VCAN (11748164_a_at) / Fold change /veh VCAN (11748164_a_at) / RFU JSRP1 (11732532_at) / Fold change /veh JSRP1 (11732532_at) / RFU KRTAP10-11 (11738290_x_at) / Fold change /veh KRTAP10-11 (11738290_x_at) / RFU MYO3A (11730013_a_at) / Fold change /veh MYO3A (11730013_a_at) / RFU EBF3 (11725865_a_at) / Fold change /veh EBF3 (11725865_a_at) / RFU CAMK2N1 (11719241_x_at) / Fold change /veh CAMK2N1 (11719241_x_at) / RFU C5orf56 (11738088_a_at) / Fold change /veh C5orf56 (11738088_a_at) / RFU OLFML3 (11715873_a_at) / Fold change /veh OLFML3 (11715873_a_at) / RFU LOC100653217 /// NTM (11731650_a_at) / Fold change /veh LOC100653217 /// NTM (11731650_a_at) / RFU MAPK11 (11762145_a_at) / Fold change /veh MAPK11 (11762145_a_at) / RFU FIZ1 (11724087_x_at) / Fold change /veh FIZ1 (11724087_x_at) / RFU OASL (11726364_x_at) / Fold change /veh OASL (11726364_x_at) / RFU SOX15 (11748057_x_at) / Fold change /veh SOX15 (11748057_x_at) / RFU CD79A (11719716_a_at) / Fold change /veh CD79A (11719716_a_at) / RFU HIST1H1D (11736915_at) / Fold change /veh HIST1H1D (11736915_at) / RFU CASKIN2 (11723855_a_at) / Fold change /veh CASKIN2 (11723855_a_at) / RFU LOC730098 (11760151_x_at) / Fold change /veh LOC730098 (11760151_x_at) / RFU OR4N2 (11742367_at) / Fold change /veh OR4N2 (11742367_at) / RFU PRRT2 (11749266_a_at) / Fold change /veh PRRT2 (11749266_a_at) / RFU SNX32 (11753110_a_at) / Fold change /veh SNX32 (11753110_a_at) / RFU CDHR5 (11726645_a_at) / Fold change /veh CDHR5 (11726645_a_at) / RFU RCAN1 (11760418_a_at) / Fold change /veh RCAN1 (11760418_a_at) / RFU FAM167A (11723789_a_at) / Fold change /veh FAM167A (11723789_a_at) / RFU FAM26E (11764081_at) / Fold change /veh FAM26E (11764081_at) / RFU ISYNA1 (11749810_s_at) / Fold change /veh ISYNA1 (11749810_s_at) / RFU ACY1 (11761880_at) / Fold change /veh ACY1 (11761880_at) / RFU 11764098_at / Fold change /veh 11764098_at / RFU SAMD14 (11745864_x_at) / Fold change /veh SAMD14 (11745864_x_at) / RFU NPB (11741838_a_at) / Fold change /veh NPB (11741838_a_at) / RFU TMPRSS6 (11731388_a_at) / Fold change /veh TMPRSS6 (11731388_a_at) / RFU KRTAP10-2 (11738614_at) / Fold change /veh KRTAP10-2 (11738614_at) / RFU ARHGAP8 /// PRR5-ARHGAP8 (11727945_x_at) / Fold change /veh ARHGAP8 /// PRR5-ARHGAP8 (11727945_x_at) / RFU KRTAP5-7 /// NADSYN1 (11734609_at) / Fold change /veh KRTAP5-7 /// NADSYN1 (11734609_at) / RFU RASL12 (11751679_a_at) / Fold change /veh RASL12 (11751679_a_at) / RFU CDKN2B (11736163_a_at) / Fold change /veh CDKN2B (11736163_a_at) / RFU PRF1 (11729649_at) / Fold change /veh PRF1 (11729649_at) / RFU, ZNF638 /// ZNF638-IT1 / Fold change vs veh, ZNF638 /// ZNF638-IT1 / RFU, PANK3 / Fold change vs veh, PANK3 / RFU, SH3YL1 / Fold change vs veh, SH3YL1 / RFU, ZEB2 / Fold change vs veh, ZEB2 / RFU, NRIP1 / Fold change vs veh, NRIP1 / RFU, PTTG1IP / Fold change vs veh, PTTG1IP / RFU, CAPN2 / Fold change vs veh, CAPN2 / RFU, MED14 / Fold change vs veh, MED14 / RFU, SNORA58 / Fold change vs veh, SNORA58 / RFU, C1orf63 / Fold change vs veh, C1orf63 / RFU, LRRFIP1 / Fold change vs veh, LRRFIP1 / RFU, NDUFAF7 / Fold change vs veh, NDUFAF7 / RFU, SLC12A2 / Fold change vs veh, SLC12A2 / RFU, IBTK / Fold change vs veh, IBTK / RFU, ESF1 / Fold change vs veh, ESF1 / Fold change vs veh, TMEM50B / RFU, TAOK1 / Fold change vs veh, TAOK1 / RFU, ACBD3 / Fold change vs veh, ACBD3 / RFU, TMA16 / Fold change vs veh, TMA16 / RFU, RWDD3 / Fold change vs veh, RWDD3 / RFU, BCAT1 / Fold change vs veh, BCAT1 / RFU, EDEM3 / Fold change vs veh, EDEM3 / RFU, TMEM33 / Fold change vs veh, TMEM33 / RFU, WDR75 / Fold change vs veh, WDR75 / RFU, AHCTF1 / Fold change vs veh, AHCTF1 / RFU, TFRC / Fold change vs veh, TFRC / RFU, ZDHHC17 / Fold change vs veh, ZDHHC17 / RFU, NOM1 / Fold change vs veh, NOM1 / RFU, ARL8B / Fold change vs veh, ARL8B / RFU, ZBTB11 / Fold change vs veh, ZBTB11 / RFU, TAMM41 / Fold change vs veh, TAMM41 / RFU, KIAA1704 /// LOC100996395 / Fold change vs veh, KIAA1704 /// LOC100996395 / RFU, ING1 / Fold change vs veh, ING1 / RFU, TRMT61B / Fold change vs veh, TRMT61B / RFU, FUBP3 / Fold change vs veh, FUBP3 / RFU, TP53 / Fold change vs veh, TP53 / RFU, TNKS2 / Fold change vs veh, TNKS2 / RFU, ZFP14 / Fold change vs veh, ZFP14 / RFU, ACTR2 / Fold change vs veh, ACTR2 / RFU, PPP3R1 / Fold change vs veh, PPP3R1 / RFU, PIK3R1 / Fold change vs veh, PIK3R1 / RFU, HNRNPA1 / Fold change vs veh, HNRNPA1 / RFU, RNF170 / Fold change vs veh, RNF170 / RFU, ZNF28 / Fold change vs veh, ZNF28 / RFU, RNGTT / Fold change vs veh, RNGTT / RFU, OGT / Fold change vs veh, OGT / RFU, BRD1 / Fold change vs veh, BRD1 / RFU, MARS / Fold change vs veh, MARS / RFU, ZNF655 / Fold change vs veh, ZNF655 / RFU, FAHD1 / Fold change vs veh, FAHD1 / RFU, BDP1 / Fold change vs veh, BDP1 / RFU, LRRCC1 / Fold change vs veh, LRRCC1 / RFU, ARID1A / Fold change vs veh, ARID1A / RFU, ZNF146 / Fold change vs veh, ZNF146 / RFU, ZNF330 / Fold change vs veh, ZNF330 / RFU, GPN3 / Fold change vs veh, GPN3 / RFU, C9orf123 / Fold change vs veh, C9orf123 / RFU, N4BP2L2 / Fold change vs veh, N4BP2L2 / RFU, ARFIP1 / Fold change vs veh, ARFIP1 / RFU, FAM179B / Fold change vs veh, FAM179B / RFU, BCL10 / Fold change vs veh, BCL10 / RFU, UHRF1BP1L / Fold change vs veh, UHRF1BP1L / RFU, BET1 / Fold change vs veh, BET1 / RFU, CNOT2 / Fold change vs veh, CNOT2 / RFU, ZNF268 / Fold change vs veh, ZNF268 / Fold change vs veh, ZNF507 / RFU, DGCR2 / Fold change vs veh, DGCR2 / RFU, WDSUB1 / Fold change vs veh, WDSUB1 / Fold change vs veh, HSP90B1 /// MIR3652 / RFU, ADSS / Fold change vs veh, ADSS / RFU, GK / Fold change vs veh, GK / RFU, ZNF148 / Fold change vs veh, ZNF148 / RFU, TAF9 / Fold change vs veh, TAF9 / RFU, SLC1A5 / Fold change vs veh, SLC1A5 / RFU, SLMO2 / Fold change vs veh, SLMO2 / RFU, ABCC4 / Fold change vs veh, ABCC4 / RFU, LOC101060439 /// RAP1B / Fold change vs veh, LOC101060439 /// RAP1B / RFU, RFX7 / Fold change vs veh, RFX7 / RFU, GTPBP10 / Fold change vs veh, GTPBP10 / RFU, CNEP1R1 / Fold change vs veh, CNEP1R1 / RFU, BIVM-ERCC5 /// ERCC5 / Fold change vs veh, BIVM-ERCC5 /// ERCC5 / RFU, ILF3 / Fold change vs veh, ILF3 / RFU 11762660_at / Fold change /veh 11762660_at / RFU VCAN (11757783_s_at) / Fold change /veh VCAN (11757783_s_at) / RFU DDX43 (11728927_at) / Fold change /veh DDX43 (11728927_at) / RFU KRT8 (11758188_x_at) / Fold change /veh KRT8 (11758188_x_at) / RFU NKD1 (11759106_at) / Fold change /veh NKD1 (11759106_at) / RFU SRD5A1 (11742802_a_at) / Fold change /veh SRD5A1 (11742802_a_at) / RFU TPSAB1 /// TPSB2 (11721975_s_at) / Fold change /veh TPSAB1 /// TPSB2 (11721975_s_at) / RFU GSTM3 (11746129_a_at) / Fold change /veh GSTM3 (11746129_a_at) / RFU IL23R (11737362_x_at) / Fold change /veh IL23R (11737362_x_at) / RFU TMEM51 (11727254_a_at) / Fold change /veh TMEM51 (11727254_a_at) / RFU PIWIL2 (11732686_x_at) / Fold change /veh PIWIL2 (11732686_x_at) / RFU ORM1 (11744905_x_at) / Fold change /veh ORM1 (11744905_x_at) / RFU CCDC152 (11743942_at) / Fold change /veh CCDC152 (11743942_at) / RFU ECM1 (11717891_a_at) / Fold change /veh ECM1 (11717891_a_at) / RFU IL23R (11748794_a_at) / Fold change /veh IL23R (11748794_a_at) / RFU TNFAIP8L3 (11732012_x_at) / Fold change /veh TNFAIP8L3 (11732012_x_at) / RFU MBOAT4 (11741988_at) / Fold change /veh MBOAT4 (11741988_at) / RFU 11764193_at / Fold change /veh 11764193_at / RFU TMEM53 (11763286_at) / Fold change /veh TMEM53 (11763286_at) / RFU MAGEB2 (11727129_at) / Fold change /veh MAGEB2 (11727129_at) / RFU TMEM200A (11744735_a_at) / Fold change /veh TMEM200A (11744735_a_at) / RFU CCDC152 (11751479_a_at) / Fold change /veh CCDC152 (11751479_a_at) / RFU FAM211A (11726209_a_at) / Fold change /veh FAM211A (11726209_a_at) / RFU RGS16 (11746705_a_at) / Fold change /veh RGS16 (11746705_a_at) / RFU VCAN (11755009_s_at) / Fold change /veh VCAN (11755009_s_at) / RFU RHOB (11743442_s_at) / Fold change /veh RHOB (11743442_s_at) / RFU RGS16 (11720943_a_at) / Fold change /veh RGS16 (11720943_a_at) / RFU RGS16 (11720944_at) / Fold change /veh RGS16 (11720944_at) / RFU, VPS4B / Fold change vs veh, VPS4B / RFU, CREB1 / Fold change vs veh, CREB1 / RFU, DNAJC13 / Fold change vs veh, DNAJC13 / RFU, GNAQ / Fold change vs veh, GNAQ / RFU, CDK5R1 / Fold change vs veh, CDK5R1 / RFU, ZRANB3 / Fold change vs veh, ZRANB3 / RFU, CUL4A / Fold change vs veh, CUL4A / RFU, CCNY / Fold change vs veh, CCNY / RFU, UFL1 / Fold change vs veh, UFL1 / RFU, COG3 / Fold change vs veh, COG3 / RFU, DIAPH2 / Fold change vs veh, DIAPH2 / RFU, SKA2 / Fold change vs veh, SKA2 / RFU, AFF3 / Fold change vs veh, AFF3 / RFU, LMF1 / Fold change vs veh, LMF1 / RFU, IPO11 / Fold change vs veh, IPO11 / RFU, DFFB / Fold change vs veh, DFFB / RFU, FOXP1 / Fold change vs veh, FOXP1 / RFU, CARD8 / Fold change vs veh, CARD8 / RFU, STRN3 / Fold change vs veh, STRN3 / RFU, ADK / Fold change vs veh, ADK / RFU, RASSF2 / Fold change vs veh, RASSF2 / RFU, WIPF1 / Fold change vs veh, WIPF1 / RFU, LARP1B / Fold change vs veh, LARP1B / RFU, RASA1 / Fold change vs veh, RASA1 / RFU, RB1 / Fold change vs veh, RB1 / RFU, PPFIA1 / Fold change vs veh, PPFIA1 / RFU, MAT2A / Fold change vs veh, MAT2A / RFU, CCT5 / Fold change vs veh, CCT5 / RFU, WDR92 / Fold change vs veh, WDR92 / RFU, CUX1 / Fold change vs veh, CUX1 / RFU, TTC7A / Fold change vs veh, TTC7A / RFU, TMEM135 / Fold change vs veh, TMEM135 / RFU, DEPTOR / Fold change vs veh, DEPTOR / RFU, CPM / Fold change vs veh, CPM / RFU, DNAJB6 / Fold change vs veh, DNAJB6 / RFU, CACNA2D3 / Fold change vs veh, CACNA2D3 / RFU, DTX4 / Fold change vs veh, DTX4 / RFU, TFCP2 / Fold change vs veh, TFCP2 / RFU, GMCL1 /// GMCL1P1 / Fold change vs veh, GMCL1 /// GMCL1P1 / RFU, AEBP2 / Fold change vs veh, AEBP2 / RFU, SNHG1 /// SNORD22 /// SNORD25 /// SNORD26 /// SNORD27 /// SNORD28 /// SNORD29 /// SNORD31 / Fold change vs veh, SNHG1 /// SNORD22 /// SNORD25 /// SNORD26 /// SNORD27 /// SNORD28 /// SNORD29 /// SNORD31 / Fold change (Aza/veh), C12orf56 (ProbeSet 11735607_a_at) / Fold change (ACY-1035/veh), C12orf56 (ProbeSet 11735607_a_at) / Fold change (Aza/veh), FGFR1OP (ProbeSet 11751329_s_at) / Fold change (ACY-1035/veh), FGFR1OP (ProbeSet 11751329_s_at) / Fold change (Aza/veh), VPS36 (ProbeSet 11739960_a_at) / Fold change (ACY-1035/veh), VPS36 (ProbeSet 11739960_a_at) / RFU SYPL1 (11715823_x_at) / Fold change /veh SYPL1 (11715823_x_at) / RFU IGFBP7 (11715501_s_at) / Fold change /veh IGFBP7 (11715501_s_at) / RFU REEP3 (11722064_at) / Fold change /veh REEP3 (11722064_at) / RFU IGLL1 (11728026_x_at) / Fold change /veh IGLL1 (11728026_x_at): dose or concentration left out as unconfirmed
Settings: ProbeSet 11734782_x_at; LIST D

In the case of `Nc1ncn([C@@H]2O[C@H](CO)[C@@H](O)[C@H]2O)c(=O)n1` [azacitidine], the “Fold change vs veh, WDR92” value is reported as 0.69.
